Measurements taken from ChEMBL document CHEMBL1128558, “Effect of bridge region variation on antifolate and antitumor activity of classical 5-substituted 2,4-diaminofuro[2,3-d]pyrimidines” (J Med Chem, 1995).

Assays:
A253 cell line = experiment: The compound was tested for Growth inhibition of the human squamous cell carcinoma A253 cells; format: functional, cell-based
FaDu [1] = experiment: Protection by 10 uM LV(leucovorin) against the growth inhibition of FaDu cells induced by the compound; format: functional, Homo sapiens; parameters: scale not given: the % may be the effect or the level left
FaDu [2] = experiment: Protection by 40 uM TdR(thymidine) against the growth inhibition of FaDu cells induced by the compound; format: functional, Homo sapiens; parameters: scale not given: the % may be the effect or the level left
FaDu [3] = experiment: Protection by 50 uM Hx (Hypoxanthine) against the growth inhibition of FaDu cells induced by the compound; format: functional, Homo sapiens; parameters: scale not given: the % may be the effect or the level left
FaDu [4] = experiment: The compound was tested for growth inhibition against FaDu cells; format: functional, Homo sapiens; parameters: scale not given: the % may be the effect or the level left
FaDu [5] = experiment: The compound was tested for Growth inhibition of the human squamous cell carcinoma FaDu cells; format: functional, cell-based
[6] = Ratio of Vmax to Km
CCRF-CEM [7] = experiment: he compound was tested for Growth inhibition of the Human T-lymphoblastic Leukemia cell line CCRF-CEM; format: functional, cell-based
Dihydrofolate reductase [8] = biological target: T1, Dihydrofolate reductase (Homo sapiens, UniProt P00374); experiment: Inhibitory concentration against recombinant human DHFR(Dihydro folate reductase).
T1 sequence (P00374 whole entry): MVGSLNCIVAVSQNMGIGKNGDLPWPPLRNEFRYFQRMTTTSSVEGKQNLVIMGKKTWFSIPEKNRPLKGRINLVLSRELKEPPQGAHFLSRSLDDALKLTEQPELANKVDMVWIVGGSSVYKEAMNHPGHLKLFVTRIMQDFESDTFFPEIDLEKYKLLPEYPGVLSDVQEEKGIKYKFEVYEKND

Thymidylate synthase [9] = biological target: T2, Thymidylate synthase (Lactobacillus casei, UniProt P00469); experiment: Inhibitory concentration against Lactobacillus casei TS (Thymidylate synthase).; parameters: species or system Lacticaseibacillus casei
T2 sequence (P00469 whole entry): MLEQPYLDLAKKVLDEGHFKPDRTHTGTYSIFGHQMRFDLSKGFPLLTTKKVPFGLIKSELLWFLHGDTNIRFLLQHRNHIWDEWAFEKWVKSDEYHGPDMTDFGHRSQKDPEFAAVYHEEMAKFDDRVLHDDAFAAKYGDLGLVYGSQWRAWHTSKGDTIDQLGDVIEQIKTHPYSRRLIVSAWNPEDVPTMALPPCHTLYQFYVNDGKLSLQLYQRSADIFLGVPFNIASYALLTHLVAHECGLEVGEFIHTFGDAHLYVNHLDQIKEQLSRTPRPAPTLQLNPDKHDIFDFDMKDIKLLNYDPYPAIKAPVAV

Dihydrofolate reductase [10] = biological target: Dihydrofolate reductase (Lactobacillus casei, UniProt P00381)
Description: inhibitory concentration against Lactobacillus casei DHFR(Dihydro folate reductase).

Thymidylate synthase [11] = biological target: Thymidylate synthase (Homo sapiens, UniProt P04818); experiment: Inhibitory concentration against recombinant human TS (Thymidylate synthase).
CCRF-CEM [12] = experiment: Compound was tested for Growth inhibition of the Human T-lymphoblastic Leukemia cell line CCRF-CEM; format: functional, cell-based
CCRF-CEM [13] = experiment: The compound was tested for Growth inhibition of Methotrexate-resistant human T-lymphoblastic leukemia cell line CCRF-CEM(sub line R30dm); format: functional, cell-based
FaDu [14] = experiment: Protection by combination of 50 uM Hx (Hypoxanthine) + 40 uM TdR(thymidine) against the growth inhibition of FaDu cells induced by the compound; format: functional, Homo sapiens; parameters: scale not given: the % may be the effect or the level left
[15] = substrate: Nc1nc(N)c2c(CCc3ccc(C(=O)N[C@@H](CCC(=O)O)C(=O)O)cc3)coc2n1; experiment: (§1) Substrate activity against CCRF-CEM human leukemia cell Folyl-polyglutamate synthase
[16] = substrate: Nc1nc(N)c2nc(CNc3ccc(C(=O)N[C@@H](CCC(=O)O)C(=O)O)cc3)cnc2n1; experiment: as §1
[17] = substrate: Nc1nc(N)c2c(CCc3ccc(C(=O)N[C@@H](CCC(=O)O)C(=O)O)cc3)coc2n1; experiment: (§2) Vmax value for substrate activity against CCRF-CEM human leukemia cell Folyl-polyglutamate synthase; format: cell-based
[18] = substrate: Nc1nc(N)c2c(CNCc3ccc(C(=O)N[C@@H](CCC(=O)O)C(=O)O)cc3)coc2n1; experiment: as §2; format: cell-based
[19] = substrate: Nc1nc(N)c2nc(CNc3ccc(C(=O)N[C@@H](CCC(=O)O)C(=O)O)cc3)cnc2n1; experiment: as §2; format: cell-based

Dihydrofolate reductase (Lactobacillus casei, UniProt P00381), sequence (P00381 whole entry): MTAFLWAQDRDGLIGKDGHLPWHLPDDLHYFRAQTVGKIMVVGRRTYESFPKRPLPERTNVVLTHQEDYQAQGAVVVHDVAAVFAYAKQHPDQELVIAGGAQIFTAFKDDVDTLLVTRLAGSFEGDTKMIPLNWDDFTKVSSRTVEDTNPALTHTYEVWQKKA
Thymidylate synthase (Homo sapiens, UniProt P04818), sequence (P04818 whole entry): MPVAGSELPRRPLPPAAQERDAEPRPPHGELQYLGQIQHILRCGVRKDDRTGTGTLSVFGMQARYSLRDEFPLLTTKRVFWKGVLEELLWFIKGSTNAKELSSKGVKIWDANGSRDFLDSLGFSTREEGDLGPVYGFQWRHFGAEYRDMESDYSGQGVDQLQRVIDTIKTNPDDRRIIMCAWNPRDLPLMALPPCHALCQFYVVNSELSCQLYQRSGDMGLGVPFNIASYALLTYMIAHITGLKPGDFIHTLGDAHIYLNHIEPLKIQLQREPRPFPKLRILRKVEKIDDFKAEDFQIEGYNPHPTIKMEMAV

With `CN(Cc1cnc2nc(N)nc(N)c2n1)c1ccc(C(=O)N[C@@H](CCC(=O)O)C(=O)O)cc1` [METHOTREXATE] the EC50 (A253 cell line) was 13 nM, the Control (FaDu [1]) was 96% and the Control (FaDu [2]) was 8%. For the same molecule, the Control (FaDu [3]) was 6%, the Control (FaDu [4]) was 2% and the EC50 (FaDu [5]) was 17 nM.

`Nc1nc(N)c2nc(CNc3ccc(C(=O)N[C@@H](CCC(=O)O)C(=O)O)cc3)cnc2n1` gave a Ratio [6] of 0.21.

Work on `Nc1nc(N)c2c(CNCc3ccc(C(=O)N[C@@H](CCC(=O)O)C(=O)O)cc3)coc2n1` yielded an EC50 (CCRF-CEM [7]) of 48000 nM, an IC50 (Dihydrofolate reductase [8]) of over 200000 nM and an IC50 (Thymidylate synthase [9]) of over 200000 nM. The IC50 (Dihydrofolate reductase [10]) was over 200000 nM.

`Nc1nc(N)c2c(CNc3ccc(C(=O)N[C@@H](CCC(=O)O)C(=O)O)cc3)coc2n1` gave an IC50 (Dihydrofolate reductase [8]) of 450 nM, an IC50 (Thymidylate synthase [9]) of over 200000 nM and an IC50 (Thymidylate synthase [11]) of over 200000 nM. For the same molecule, the IC50 (Dihydrofolate reductase [10]) was 560 nM.

`Nc1nc(N)c2c(CCc3ccc(C(=O)N[C@@H](CCC(=O)O)C(=O)O)cc3)coc2n1` gave an EC50 (A253 cell line) of 540 nM, an EC50 (CCRF-CEM [12]) of 290 nM and an EC50 (CCRF-CEM [13]) of 4250 nM. For the same molecule, the Control (FaDu [1]) was 105%, the Control (FaDu [2]) was 14% and the Control (FaDu [3]) was 4%. It also gave a Control (FaDu [14]) of 107%, a Control (FaDu [4]) of 7% and an EC50 (FaDu [5]) of 180 nM. The IC50 (Thymidylate synthase [9]) was 200000 nM and the Ratio [6] was 0.07.

B1: Folylpolyglutamate synthase, mitochondrial (Homo sapiens), Q05932 (protein)
chain: MSRARSHLRAALFLAAASARGITTQVAARRGLSAWPVPQEPSMEYQDAVRMLNTLQTNAGYLEQVKRQRGDPQTQLEAMELYLARSGLQVEDLDRLNIIHVTGTKGKGSTCAFTECILRSYGLKTGFFSSPHLVQVRERIRINGQPISPELFTKYFWRLYHRLEETKDGSCVSMPPYFRFLTLMAFHVFLQEKVDLAVVEVGIGGAYDCTNIIRKPVVCGVSSLGIDHTSLLGDTVEKIAWQKGGIFKQGVPAFTVLQPEGPLAVLRDRAQQISCPLYLCPMLEALEEGGPPLTLGLEGEHQRSNAALALQLAHCWLQRQDRHGAGEPKASRPGLLWQLPLAPVFQPTSHMRLGLRNTEWPGRTQVLRRGPLTWYLDGAHTASSAQACVRWFRQALQGRERPSGGPEVRVLLFNATGDRDPAALLKLLQPCQFDYAVFCPNLTEVSSTGNADQQNFTVTLDQVLLRCLEHQQHWNHLDEEQASPDLWSAPSPEPGGSASLLLAPHPPHTCSASSLVFSCISHALQWISQGRDPIFQPPSPPKGLLTHPVAHSGASILREAAAIHVLVTGSLHLVGGVLKLLEPALSQ
In the case of B1, the Km [15] is reported as 8.5 µM, the Km [16] is reported as 4.8 µM and the Vmax [17] is reported as 0.65. The Vmax [18] was 0.6 and the Vmax [19] was 1.
